Test results published in ChEMBL document CHEMBL6078616, “Seven-membered N-heterocycles as approved drugs and promising leads in medicinal chemistry as well as the metal-free domino access to their scaffolds” (Eur J Med Chem, 2024).

Assays:
[1] = biological target: Histone deacetylase 2 (Homo sapiens, UniProt Q92769); experiment: Inhibition of HDAC2 (unknown origin)
[2] = biological target: T1, Polyamine deacetylase HDAC10 (Homo sapiens, UniProt Q969S8); experiment: Inhibition of HDAC10 (unknown origin)
T1 sequence (Q969S8 whole entry): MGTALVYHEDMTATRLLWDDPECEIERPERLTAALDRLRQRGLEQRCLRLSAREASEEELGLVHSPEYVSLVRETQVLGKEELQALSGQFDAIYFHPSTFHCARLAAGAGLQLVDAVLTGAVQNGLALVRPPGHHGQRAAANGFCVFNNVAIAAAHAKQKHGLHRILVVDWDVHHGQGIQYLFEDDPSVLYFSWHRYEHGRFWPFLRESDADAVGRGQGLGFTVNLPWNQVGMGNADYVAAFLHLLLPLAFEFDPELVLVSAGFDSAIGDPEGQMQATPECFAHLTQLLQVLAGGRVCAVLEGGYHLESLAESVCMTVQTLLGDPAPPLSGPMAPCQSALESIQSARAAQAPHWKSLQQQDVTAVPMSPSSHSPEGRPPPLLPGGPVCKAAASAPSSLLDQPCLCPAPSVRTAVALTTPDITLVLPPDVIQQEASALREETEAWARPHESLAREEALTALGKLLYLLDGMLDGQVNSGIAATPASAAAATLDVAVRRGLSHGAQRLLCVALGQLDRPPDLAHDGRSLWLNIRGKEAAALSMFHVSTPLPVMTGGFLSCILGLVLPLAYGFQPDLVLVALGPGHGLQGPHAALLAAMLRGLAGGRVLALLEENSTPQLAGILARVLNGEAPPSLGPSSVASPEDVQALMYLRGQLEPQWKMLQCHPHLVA

[3] = biological target: Histone deacetylase 3 (Homo sapiens, UniProt O15379); experiment: Inhibition of HDAC3 (unknown origin)
Sequence of Histone deacetylase 3 (O15379 whole entry): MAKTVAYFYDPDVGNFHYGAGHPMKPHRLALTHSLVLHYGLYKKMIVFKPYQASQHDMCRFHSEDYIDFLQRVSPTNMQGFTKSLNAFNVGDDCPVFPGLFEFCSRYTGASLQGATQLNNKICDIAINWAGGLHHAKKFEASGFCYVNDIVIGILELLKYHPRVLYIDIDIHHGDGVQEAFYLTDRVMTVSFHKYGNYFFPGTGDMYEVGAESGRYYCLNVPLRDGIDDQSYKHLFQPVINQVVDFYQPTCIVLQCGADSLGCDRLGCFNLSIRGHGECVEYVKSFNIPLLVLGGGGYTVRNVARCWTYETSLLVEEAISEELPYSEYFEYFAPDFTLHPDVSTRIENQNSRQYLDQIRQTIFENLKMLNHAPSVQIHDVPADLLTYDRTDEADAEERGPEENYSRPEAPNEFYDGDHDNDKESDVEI

[4] = biological target: Histone deacetylase 4 (Homo sapiens, UniProt P56524); experiment: Inhibition of HDAC4 (unknown origin)
Sequence of Histone deacetylase 4 (P56524 whole entry): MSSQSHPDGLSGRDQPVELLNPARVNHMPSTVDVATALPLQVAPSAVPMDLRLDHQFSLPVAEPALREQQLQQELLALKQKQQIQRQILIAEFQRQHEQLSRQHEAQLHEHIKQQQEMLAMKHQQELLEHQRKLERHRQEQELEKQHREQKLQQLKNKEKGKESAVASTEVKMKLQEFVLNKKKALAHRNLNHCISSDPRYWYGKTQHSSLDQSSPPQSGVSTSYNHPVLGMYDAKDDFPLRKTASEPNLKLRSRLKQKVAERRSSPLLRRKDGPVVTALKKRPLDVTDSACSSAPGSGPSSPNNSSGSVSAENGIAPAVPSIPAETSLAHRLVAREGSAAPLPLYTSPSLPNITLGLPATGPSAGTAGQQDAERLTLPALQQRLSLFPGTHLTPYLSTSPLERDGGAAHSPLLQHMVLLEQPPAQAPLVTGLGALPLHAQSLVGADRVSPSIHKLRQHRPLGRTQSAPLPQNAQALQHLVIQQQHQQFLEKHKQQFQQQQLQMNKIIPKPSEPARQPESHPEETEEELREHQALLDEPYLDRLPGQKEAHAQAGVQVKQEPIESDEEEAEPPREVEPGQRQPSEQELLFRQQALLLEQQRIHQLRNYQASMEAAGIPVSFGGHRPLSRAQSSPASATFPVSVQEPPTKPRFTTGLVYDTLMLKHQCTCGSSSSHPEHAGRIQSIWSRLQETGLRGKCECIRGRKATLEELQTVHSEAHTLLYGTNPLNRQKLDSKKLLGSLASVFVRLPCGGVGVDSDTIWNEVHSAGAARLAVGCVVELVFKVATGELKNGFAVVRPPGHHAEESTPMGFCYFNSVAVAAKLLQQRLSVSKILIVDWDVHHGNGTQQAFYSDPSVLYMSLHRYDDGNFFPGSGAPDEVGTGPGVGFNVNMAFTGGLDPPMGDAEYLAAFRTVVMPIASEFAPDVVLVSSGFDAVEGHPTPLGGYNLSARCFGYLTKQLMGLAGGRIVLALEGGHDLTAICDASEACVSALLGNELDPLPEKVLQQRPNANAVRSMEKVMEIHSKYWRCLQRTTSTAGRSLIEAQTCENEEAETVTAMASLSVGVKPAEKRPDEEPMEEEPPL

Sequence of Histone deacetylase 2 (Q92769 whole entry): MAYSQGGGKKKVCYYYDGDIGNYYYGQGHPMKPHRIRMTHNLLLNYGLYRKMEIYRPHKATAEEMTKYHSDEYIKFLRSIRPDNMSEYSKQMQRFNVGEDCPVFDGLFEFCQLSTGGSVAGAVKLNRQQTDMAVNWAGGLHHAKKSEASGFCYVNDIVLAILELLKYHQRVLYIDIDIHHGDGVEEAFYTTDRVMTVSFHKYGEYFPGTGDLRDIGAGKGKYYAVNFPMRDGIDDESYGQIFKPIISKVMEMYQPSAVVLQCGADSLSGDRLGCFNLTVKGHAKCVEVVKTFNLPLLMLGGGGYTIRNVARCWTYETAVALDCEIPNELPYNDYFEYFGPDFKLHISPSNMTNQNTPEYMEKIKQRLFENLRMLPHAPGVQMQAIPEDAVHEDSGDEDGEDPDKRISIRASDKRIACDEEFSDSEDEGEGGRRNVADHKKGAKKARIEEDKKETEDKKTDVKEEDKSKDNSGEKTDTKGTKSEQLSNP

IC50 [1]: 26 µM | IC50 [2]: 14 µM | IC50 [3]: 26 µM | IC50 [4]: > 30 µM
SMILES: O=C(NO)c1ccc(CN2c3ccccc3[S+]([O-])C[C@H]3CCCC[C@H]32)cc1 (some centres undefined)
